Calls of active or inactive are those of the source. No cut-off for these calls is given here.

Data set [1] concerns Staphylococcus aureus. In words: Antimicrobial activity against Staphylococcus aureus. It is filed as functional, organism-based.
Data set [2] relates to Bacillus subtilis. Description: Antimicrobial activity against Bacillus subtilis. The data set is classed as functional, organism-based.
The subject of data set [3] is Artemia salina. In words: Toxicity in Artemia salina. The data set is classed as organism-based. The following applies: in vivo.
Data set [4] has as its system Agrobacterium tumefaciens. In words: Antitumor activity against Agrobacterium tumefaciens-induced crown gall tumor by potato disk assay. It is filed as functional.

In the case of `CC(=O)/C=C/C1=CC[C@@H]2[C@H](C)C(=O)O[C@@H]2C[C@@H]1C`, the result in data set [1] and in data set [2] was inactive.
The compound `C=C1C(=O)O[C@@H]2CC(=C)[C@@H]3CC=C(C)[C@@H]3C[C@H]12` [GUAIANOLIDE ZINIOLIDE] showed an LC50 in data set [3] of 14 ppm. In data set [4], the “inhibition (INH)” value amounted to 49%.

Source of the values: ChEMBL document CHEMBL1158950, “New Sesquiterpenes from Xanthium catharticum” (J Nat Prod, 1991).
